Experimental data taken from patent US20260116910A1, “POLYCYCLIC COMPOUNDS AND METHODS THEREOF” (HEPAITECH (BEIJING) BIOPHARMA TECHNOLOGY CO., LTD., priority 2021, published 2026).

How the values were obtained:
human FXR (NR1H4) = target: T1, human FXR (NR1H4) (Homo sapiens, UniProt Q96RI1); experiment: Human FXR (NR1H4) agonist assessment, FXRE-NanoLuc reporter in HEK293T cells; format: cell-based; conditions: FXR activation, HEK293T FXRE-NanoLuc reporter, 24 hr; for EC50: read-out: EC50
T1 sequence (Q96RI1 1-476 isoform Q96RI1-1): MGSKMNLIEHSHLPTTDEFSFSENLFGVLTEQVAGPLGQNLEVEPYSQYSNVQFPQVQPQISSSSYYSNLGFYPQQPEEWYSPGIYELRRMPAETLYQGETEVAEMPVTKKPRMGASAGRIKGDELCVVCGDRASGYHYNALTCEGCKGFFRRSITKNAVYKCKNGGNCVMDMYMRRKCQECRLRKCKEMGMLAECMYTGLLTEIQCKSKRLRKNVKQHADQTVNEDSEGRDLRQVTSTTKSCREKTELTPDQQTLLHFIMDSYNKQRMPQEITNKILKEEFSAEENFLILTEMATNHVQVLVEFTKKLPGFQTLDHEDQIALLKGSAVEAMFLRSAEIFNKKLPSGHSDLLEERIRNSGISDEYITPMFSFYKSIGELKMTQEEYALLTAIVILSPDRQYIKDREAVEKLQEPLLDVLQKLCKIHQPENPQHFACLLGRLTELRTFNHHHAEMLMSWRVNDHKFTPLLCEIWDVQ
How it was run: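 HEK293T cells stably expressing human FXR with an FXRE-NanoLuc reporter were treated with compounds for 24 hr at 37 °C, with 0.01% DMSO as negative control. Medium was read for luminescence after 5 min with coelenterazine. EC50 was fitted by sigmoid to concentration-response data.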

MRGPRX4 = MRGPRX4 (Homo sapiens, UniProt Q96LA9); experiment: MRGPRX4 activation, Fluo-8 Ca2+ FLIPR assay in HEK293T cells stably expressing MRGPRX4; format: cell-based; conditions: for EC50: MRGPRX4 activation, Ca2+ fluorescence, no activation in tested range reported as III, read-out: Activity (EC50 μM)
How it was run: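 Cells seeded overnight to >95% confluence, loaded 40-60 min at room temperature with 2 μM Fluo-8 AM, then kept in HHBS. Baseline read 30 s, compound added, signal followed 150 s more.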

MRGPRX4, sequence (Q96LA9 whole entry): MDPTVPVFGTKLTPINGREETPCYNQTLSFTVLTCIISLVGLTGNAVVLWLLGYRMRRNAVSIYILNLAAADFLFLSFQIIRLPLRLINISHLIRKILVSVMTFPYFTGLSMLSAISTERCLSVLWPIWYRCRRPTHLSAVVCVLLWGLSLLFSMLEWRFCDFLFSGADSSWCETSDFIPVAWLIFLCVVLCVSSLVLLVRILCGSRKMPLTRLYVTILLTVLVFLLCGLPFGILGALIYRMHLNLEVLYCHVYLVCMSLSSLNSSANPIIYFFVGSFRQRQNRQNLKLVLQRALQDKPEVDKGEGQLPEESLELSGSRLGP

Structure (SMILES) | Efficacy (maximum measured induction of NanoLuc, normalized to CDCA set as 100%) (human FXR (NR1H4)) | EC50 (human FXR (NR1H4)) | MRGPRX4 activation, fluorescence change (dF/F0), Average (MRGPRX4; Conc. (Log[M]) −4) | MRGPRX4 activation, fluorescence change (dF/F0), Average (MRGPRX4; Conc. (Log[M]) −4.5) | MRGPRX4 activation, fluorescence change (dF/F0), Average (MRGPRX4; Conc. (Log[M]) −5) | MRGPRX4 activation, fluorescence change (dF/F0), Average (MRGPRX4; Conc. (Log[M]) −5.5) | MRGPRX4 activation, fluorescence change (dF/F0), Average (MRGPRX4; Conc. (Log[M]) −6) | MRGPRX4 activation, fluorescence change (dF/F0), Average (MRGPRX4; Conc. (Log[M]) −7) | MRGPRX4 activation, fluorescence change (dF/F0), Average (MRGPRX4; Conc. (Log[M]) −8) | MRGPRX4 activation, fluorescence change (dF/F0), Average (MRGPRX4; Conc. (Log[M]) −9) | EC50 (MRGPRX4)
C[C@H](CCC(C)(C)O)[C@H]1CC[C@H]2[C@@H]3CC[C@@H]4CCCC[C@]4(C)[C@H]3CC[C@]12C [2-3] | C (100%<efficacy <=300%) | 1 to 10 µM | 0.074 | 0.027 | −0.036 | −0.031 | −0.031 | −0.008 | −0.023 | −0.017 | > 100 µM
CC[C@H]1[C@@H](O)[C@@H]2[C@H](CC[C@]3(C)[C@@H]([C@H](C)CC#N)CC[C@@H]23)[C@@]2(C)CCCC[C@@H]12 [2-4] | C (100%<efficacy <=300%) | > 10 µM | 0.008 | −0.025 | −0.026 | −0.018 | −0.037 | −0.025 | −0.038 | −0.037 | > 100 µM
CC[C@H]1[C@@H](O)[C@@H]2[C@H](CC[C@]3(C)[C@@H]([C@H](C)CCO)CC[C@@H]23)[C@@]2(C)CCCC[C@@H]12 [2-5] | A (efficacy >400%) | 1 to 10 µM |  |  |  |  |  |  |  |  | > 100 µM
CC[C@H]1[C@@H](O)[C@@H]2[C@H](CC[C@]3(C)[C@@H]([C@H](C)CCCOS(=O)(=O)O)CC[C@@H]23)[C@@]2(C)CCCC[C@@H]12 [2-6] | B (300%<efficacy <=400%) | 1 to 10 µM |  |  | −0.047 |  |  |  |  |  | 50 to 100 µM
CC[C@H]1[C@@H](OC(=O)c2cccc(I)c2)[C@@H]2[C@H](CC[C@]3(C)C([C@H](C)CCC(=O)OC)=CC[C@@H]23)[C@@]2(C)CCCC[C@@H]12 [3-1] | C (100%<efficacy <=300%) | 1 to 10 µM | 0.008 | 0.004 | −0.027 | −0.004 | −0.017 | 0.005 | 0.001 | −0.001 | > 100 µM
CC[C@H]1[C@@H](OC(=O)c2cccc(I)c2)[C@@H]2[C@H](CC[C@]3(C)C([C@H](C)CCC(=O)OC)=CC(=O)[C@@H]23)[C@@]2(C)CCCC[C@@H]12 [3-2] | C (100%<efficacy <=300%) | > 10 µM | 0.130 | 0.023 | −0.003 | −0.034 | 0.008 | −0.014 | −0.016 | −0.035 | > 100 µM
